Assay results taken from ChEMBL document CHEMBL1130779, “Synthesis and pharmacological activity of the stereoisomers of GP-88, a propafenone-type modulator of multidrug resistance” (Bioorg Med Chem Lett, 1998).

These compounds were tested on CCRF-CEM/VCR-1000 (assay: MDR-modulating activity as a measure to inhibit P-glycoprotein (PGP) mediated transmembrane transport in human T-lymphoblast cell line CEM vcr 1000 using the daunomycin efflux assay).
Assay type: functional, cell-based

Row | EC50 | Compound
1 | 0.26 µM | CCCNC[C@@H](O)COc1ccccc1C(=O)CCc1ccccc1
2 | 0.78 µM | C[C@@H](O)COc1ccccc1[C@@H](C)O
3 | 1.4 µM | C[C@H](O)COc1ccccc1[C@@H](C)O
4 | 1.56 µM | C[C@H](O)COc1ccccc1[C@H](C)O
5 | 0.37 µM | CCCNC[C@H](O)COc1ccccc1C(=O)CCc1ccccc1
6 | 0.58 µM | C[C@H](O)c1ccccc1OC[C@@H](C)O
